This data set is described as follows: in vivo. Conditions: rat, iv, 30 μg/min/kg.

With `CC/C=C\C/C=C\C/C=C\C/C=C\C/C=C\CCCC(=O)OCCN(CC)CCOC(c1ccccc1)c1ccccc1` [Formula I (compound 1-4)], the half-life by setting is: (brain (striatum microdialysate, unbound drug)) 49.1 ± 7.3 min; (plasma (femoral vein microdialysate, unbound drug)) 67.6 ± 1.4 min.

The values above are taken from patent publication US20150087697A1, “COMPOSITIONS AND METHODS FOR THE TREATMENT OF MUSCLE PAIN” (priority 2012, published 2015).
